Marks after values point to notes of the source that are not given here.
Legend:
[1] = Biodistribution in ddY mice; type: in vivo; settings: i.v. co-injection
Procedure: In this study, to minimize both the number of mice consumed in the experiment and the potential for experimental errors, we co-injected radiobrominated and radioiodinated compounds into mice[30],[31]. High radioactivity in the liver, small intestine, and large intestine was observed.
(§1) Mice were intravenously injected via the tail with 100 µL of saline solution of [^77Br]2 and [^125I]4 or [^77Br]3 and [^125I]5 (74 kBq, respectively), containing 10% ethanol and 1% tween-80. The ddY mice were sacrificed at 10 min, 1, 4, and 24 h postinjection. Meanwhile, tumor-bearing mice were sacrificed at 1 h postinjection.
(§2) Tissues in mice were resected and weighed. The radioactivity of the tissues was counted by a gamma counter and counts were corrected for background radiation. The data were expressed as percent injection dose per gram tissue (%ID/g).

BxPC3-luc tumor = assay: Biodistribution in BxPC3-luc tumor-bearing mice; type: in vivo, BALB/c nu/nu mice; settings: i.v. co-injection, 1 h
Procedure: We investigated the biodistribution of the radiotracers in BxPC3-luc tumor-bearing mice by co-injecting [^77Br]2 with [^125I]4 (Table 3), and [^77Br]3 with [^125I]5 (Table 4).
Animal experiments were conducted in strict accordance with the Guidelines for the Care and Use of Laboratory Animals of Kanazawa University. The animal experimental protocols used were approved by the Committee on Animal Experimentation of Kanazawa University (Permit Number: AP-163766). The animals were housed with free access to food and water at approximately 23 °C with a 12 h light/dark schedule. ddY mice (six-week-old, male, 27–30 g) and BALB/c nu/nu mice (four-week-old, female, 12–17 g) were purchased from Japan SLC Inc. (Hamamatsu, Japan). For preparing the tumor-bearing mice, BxPC3-luc cells (5 × 10^6 cells) were subcutaneously injected into the left shoulder of BALB/c nu/nu mice. The tumor reached palpable size after two weeks of the inoculation.
as §1, §2

[2] = parameters: method as in PMID 28838832; settings: radioiodinated compounds; cited from earlier work
PDGFRβ (BxPC3-luc cells) = target: T1, PDGFRβ (BxPC3-luc cells) (Homo sapiens, UniProt P09619); assay: Competitive binding assay of [^125I]4 with BxPC3-luc cells; settings: displacement of [^125I]4, BxPC3-luc cells, 37 °C, 4 h
T1 construct: host or cells: BxPC3-luc cells
T1 sequence (P09619 33-1106): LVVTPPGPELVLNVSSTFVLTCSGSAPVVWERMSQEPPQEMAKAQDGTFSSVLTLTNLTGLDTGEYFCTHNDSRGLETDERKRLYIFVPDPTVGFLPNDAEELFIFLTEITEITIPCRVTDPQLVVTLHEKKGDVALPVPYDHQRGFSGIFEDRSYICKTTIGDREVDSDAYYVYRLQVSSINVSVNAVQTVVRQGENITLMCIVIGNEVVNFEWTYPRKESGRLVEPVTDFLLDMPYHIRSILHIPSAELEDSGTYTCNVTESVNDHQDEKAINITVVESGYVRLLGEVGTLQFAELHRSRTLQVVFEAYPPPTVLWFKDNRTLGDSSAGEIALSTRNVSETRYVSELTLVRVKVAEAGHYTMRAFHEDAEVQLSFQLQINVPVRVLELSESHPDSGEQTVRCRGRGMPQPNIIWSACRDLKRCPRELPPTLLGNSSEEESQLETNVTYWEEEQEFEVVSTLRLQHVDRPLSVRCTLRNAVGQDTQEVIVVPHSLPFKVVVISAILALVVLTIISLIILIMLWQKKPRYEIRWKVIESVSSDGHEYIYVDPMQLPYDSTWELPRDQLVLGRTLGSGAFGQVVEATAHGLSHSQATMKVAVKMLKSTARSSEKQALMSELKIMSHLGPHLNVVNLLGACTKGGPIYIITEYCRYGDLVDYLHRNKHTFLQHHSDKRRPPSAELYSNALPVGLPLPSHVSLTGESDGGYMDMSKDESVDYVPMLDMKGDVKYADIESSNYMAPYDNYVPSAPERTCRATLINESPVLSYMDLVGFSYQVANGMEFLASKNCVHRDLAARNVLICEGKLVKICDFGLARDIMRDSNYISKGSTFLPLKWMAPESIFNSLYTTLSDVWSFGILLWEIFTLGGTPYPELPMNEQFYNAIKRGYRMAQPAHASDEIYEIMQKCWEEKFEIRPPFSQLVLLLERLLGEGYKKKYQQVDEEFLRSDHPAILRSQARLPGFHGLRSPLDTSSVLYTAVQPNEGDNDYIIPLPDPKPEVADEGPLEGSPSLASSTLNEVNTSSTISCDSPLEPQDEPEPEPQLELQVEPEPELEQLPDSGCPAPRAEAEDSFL
Procedure: We investigated the competitive binding of [^125I]4 to BxPC3-luc cells with PDGFRβ ligand, 1, 2, and 3.
BxPC3-luc cells in medium containing 10% FBS and antibiotics were seeded on 24-well plates (50,000 cells/wells) and incubated for 24 h in a 5% CO2 incubator at 37 °C. Nine concentrations of displacing nonradiolabeled ligands (1, 2 and 3) (ranging from 1 pM to 1 mM) and [^125I]4 in medium without FBS were incubated at 37 °C for 4 h. After washing the cells twice using 250 µL of ice-cold PBS, the unbound radioligand was removed. The cells were dissolved using 250 µL of 1 M NaOH and wells were washed with 250 µL of 1 M NaOH. The bound radioactivity was determined using a gamma counter.
All data were statisticaly analyzed using GraphPad 5.0 software (La Jolla, CA, USA) and expressed as mean ± standard deviation (SD). Significance for in vitro blocking experiments was determined by a one-way analysis of variance (ANOVA) followed by Dunnett’s post hoc test compared to the control group. Significance in cell viability assays was determined by ANOVA followed by Tukey’s post hoc test. IC50 values for the binding assay were calculated by nonlinear regression. Significant differences in biodistribution experiments between [^77Br]2 and [^77Br]3 groups were determined using unpaired Student’s t-test. Significance for in vivo blocking studies between control and blocking groups were determined by unpaired Student’s t-test. Results were considered statistically significant at p < 0.05.

Which “Radioactivity in Blood” value ([1]; 10 min) does the source give for `COCCOc1ccc2c(c1)ncn2-c1ccc2cccc(N3CCC(NC(=O)c4cccc([125I])c4)CC3)c2n1` [[^125I]5, [^125I]N-3-iodobenzoyl-1-{2-[5-(2-methoxyethoxy)-1H-benzo[d]imidazol-1-yl]quinolin-8-yl}-piperidin-4-amine, reference compound] here?
The value was 0.94 (0.14)^** %injected dose/gram tissue.

What about the “Radioactivity in Bone” value ([1]; 10 min) of the same compound?
The value was 0.81 (0.11)^** %injected dose/gram tissue.

And the “Radioactivity in Brain” value ([1]; 10 min)?
Its value is 0.19 (0.03)^** %injected dose/gram tissue.

And the “Radioactivity in Heart” value ([1]; 10 min)?
Its value is 1.66 (0.23)^** %injected dose/gram tissue.

What about the “Radioactivity in Kidney” value ([1]; 10 min) of the same compound?
The value was 5.23 (0.65) %injected dose/gram tissue.

And the “Radioactivity in Large intestine” value ([1]; 10 min)?
The value was 0.75 (0.06)^* %injected dose/gram tissue.

What about the “Radioactivity in Liver” value ([1]; 10 min) of the same compound?
Its value is 16.37 (2.05)^** %injected dose/gram tissue.

What about the “Radioactivity in Lung” value ([1]; 10 min) of the same compound?
Its value is 1.80 (0.30)^* %injected dose/gram tissue.

And the “Radioactivity in Muscle” value ([1]; 10 min)?
The value was 0.97 (0.16)^* %injected dose/gram tissue.

And the “Radioactivity in Pancreas” value ([1]; 10 min)?
Its value is 2.41 (0.20) %injected dose/gram tissue.

What about the “Radioactivity in Small intestine” value ([1]; 10 min) of the same compound?
The value was 9.59 (1.71)^** %injected dose/gram tissue.

What about the “Radioactivity in Spleen” value ([1]; 10 min) of the same compound?
The value was 1.72 (0.23) %injected dose/gram tissue.

What about the “Radioactivity in Stomach” value ([1]; 10 min) of the same compound?
Its value is 2.09 (1.12) %injected dose /organ.

And the “Radioactivity in Blood” value ([1]; 1 h)?
The value was 0.26 (0.05)^** %injected dose/gram tissue.

And the “Radioactivity in Bone” value ([1]; 1 h)?
The value was 0.64 (0.31)^*** %injected dose/gram tissue.

And the “Radioactivity in Brain” value ([1]; 1 h)?
Its value is 0.07 (0.03)^** %injected dose/gram tissue.

What about the “Radioactivity in Heart” value ([1]; 1 h) of the same compound?
The value was 0.39 (0.15)^** %injected dose/gram tissue.

And the “Radioactivity in Kidney” value ([1]; 1 h)?
Its value is 1.57 (0.42) %injected dose/gram tissue.

And the “Radioactivity in Large intestine” value ([1]; 1 h)?
The value was 3.46 (2.18) %injected dose/gram tissue.

What about the “Radioactivity in Liver” value ([1]; 1 h) of the same compound?
The value was 3.32 (0.49)^** %injected dose/gram tissue.

And the “Radioactivity in Lung” value ([1]; 1 h)?
The value was 1.07 (0.08) %injected dose/gram tissue.

What about the “Radioactivity in Muscle” value ([1]; 1 h) of the same compound?
The value was 0.31 (0.13)^* %injected dose/gram tissue.

What about the “Radioactivity in Pancreas” value ([1]; 1 h) of the same compound?
The value was 0.86 (0.07)^** %injected dose/gram tissue.

And the “Radioactivity in Small intestine” value ([1]; 1 h)?
Its value is 24.03 (1.45)^** %injected dose/gram tissue.

What about the “Radioactivity in Spleen” value ([1]; 1 h) of the same compound?
Its value is 0.70 (0.16)^** %injected dose/gram tissue.

And the “Radioactivity in Stomach” value ([1]; 1 h)?
The value was 0.78 (0.19) %injected dose /organ.

What about the “Radioactivity in Blood” value ([1]; 4 h) of the same compound?
The value was 0.08 (0.01)^** %injected dose/gram tissue.

And the “Radioactivity in Bone” value ([1]; 4 h)?
Its value is 0.40 (0.09)^** %injected dose/gram tissue.

What about the “Radioactivity in Brain” value ([1]; 4 h) of the same compound?
The value was 0.01 (0.00)^** %injected dose/gram tissue.

And the “Radioactivity in Heart” value ([1]; 4 h)?
Its value is 0.20 (0.04)^** %injected dose/gram tissue.

What about the “Radioactivity in Kidney” value ([1]; 4 h) of the same compound?
The value was 0.36 (0.10)^* %injected dose/gram tissue.

What about the “Radioactivity in Large intestine” value ([1]; 4 h) of the same compound?
The value was 18.55 (1.85)^** %injected dose/gram tissue.

What about the “Radioactivity in Liver” value ([1]; 4 h) of the same compound?
Its value is 1.21 (0.96) %injected dose/gram tissue.

And the “Radioactivity in Lung” value ([1]; 4 h)?
Its value is 0.50 (0.19) %injected dose/gram tissue.

And the “Radioactivity in Muscle” value ([1]; 4 h)?
Its value is 0.16 (0.08)^* %injected dose/gram tissue.

What about the “Radioactivity in Pancreas” value ([1]; 4 h) of the same compound?
The value was 0.27 (0.07)^** %injected dose/gram tissue.

What about the “Radioactivity in Small intestine” value ([1]; 4 h) of the same compound?
The value was 1.32 (0.66)^* %injected dose/gram tissue.

What about the “Radioactivity in Spleen” value ([1]; 4 h) of the same compound?
Its value is 0.27 (0.09)^** %injected dose/gram tissue.

What about the “Radioactivity in Stomach” value ([1]; 4 h) of the same compound?
The value was 0.27 (0.10) %injected dose /organ.

And the “Radioactivity in Blood” value ([1]; 24 h)?
Its value is 0.01 (0.00)^** %injected dose/gram tissue.

And the “Radioactivity in Bone” value ([1]; 24 h)?
The value was 0.06 (0.00)^** %injected dose/gram tissue.

What about the “Radioactivity in Brain” value ([1]; 24 h) of the same compound?
The value was 0.00 (0.00)^** %injected dose/gram tissue.

And the “Radioactivity in Heart” value ([1]; 24 h)?
The value was 0.02 (0.01)^** %injected dose/gram tissue.

What about the “Radioactivity in Kidney” value ([1]; 24 h) of the same compound?
The value was 0.05 (0.00)^** %injected dose/gram tissue.

What about the “Radioactivity in Large intestine” value ([1]; 24 h) of the same compound?
The value was 0.02 (0.00)^** %injected dose/gram tissue.

And the “Radioactivity in Liver” value ([1]; 24 h)?
The value was 0.06 (0.00)^** %injected dose/gram tissue.

What about the “Radioactivity in Lung” value ([1]; 24 h) of the same compound?
The value was 0.01 (0.00)^** %injected dose/gram tissue.

What about the “Radioactivity in Muscle” value ([1]; 24 h) of the same compound?
The value was 0.01 (0.00)^** %injected dose/gram tissue.

And the “Radioactivity in Pancreas” value ([1]; 24 h)?
Its value is 0.02 (0.00)^** %injected dose/gram tissue.

What about the “Radioactivity in Small intestine” value ([1]; 24 h) of the same compound?
Its value is 0.01 (0.00)^** %injected dose/gram tissue.

And the “Radioactivity in Spleen” value ([1]; 24 h)?
The value was 0.02 (0.00)^** %injected dose/gram tissue.

And the “Radioactivity in Stomach” value ([1]; 24 h)?
The value was 0.01 (0.00)^** %injected dose /organ.

What about the “Radioactivity in Blood” value (BxPC3-luc tumor) of the same compound?
The value was 0.23 (0.02)^** %injected dose/gram of tissue.

And the “Radioactivity in Bone” value (BxPC3-luc tumor)?
The value was 0.31 (0.04)^** %injected dose/gram of tissue.

And the “Radioactivity in Brain” value (BxPC3-luc tumor)?
The value was 0.05 (0.00)^** %injected dose/gram of tissue.

What about the “Radioactivity in BxPC3-luc tumor” value (BxPC3-luc tumor) of the same compound?
Its value is 0.55 (0.09)^* %injected dose/gram of tissue.

What about the “Radioactivity in Heart” value (BxPC3-luc tumor) of the same compound?
The value was 0.42 (0.05)^** %injected dose/gram of tissue.

What about the “Radioactivity in Kidney” value (BxPC3-luc tumor) of the same compound?
Its value is 1.13 (0.11)^** %injected dose/gram of tissue.

And the “Radioactivity in Large intestine” value (BxPC3-luc tumor)?
Its value is 7.98 (3.79) %injected dose/gram of tissue.

And the “Radioactivity in Liver” value (BxPC3-luc tumor)?
Its value is 4.83 (0.71)^** %injected dose/gram of tissue.

What about the “Radioactivity in Lung” value (BxPC3-luc tumor) of the same compound?
Its value is 1.16 (0.23)^** %injected dose/gram of tissue.

What about the “Radioactivity in Muscle” value (BxPC3-luc tumor) of the same compound?
Its value is 0.38 (0.06)^** %injected dose/gram of tissue.

And the “Radioactivity in Pancreas” value (BxPC3-luc tumor)?
Its value is 1.25 (0.17)^** %injected dose/gram of tissue.

And the “Radioactivity in Small intestine” value (BxPC3-luc tumor)?
Its value is 46.95 (2.88)^** %injected dose/gram of tissue.

What about the “Radioactivity in Spleen” value (BxPC3-luc tumor) of the same compound?
The value was 0.61 (0.06)^** %injected dose/gram of tissue.

And the “Radioactivity in Stomach” value (BxPC3-luc tumor)?
Its value is 0.27 (0.06)^* %injected dose /organ.

What about the “n-octanol/phosphate buffer partition coefficient (log P)” value [2] of the same compound?
The value was 3.19 ± 0.17.

For `COCCOc1ccc2c(c1)ncn2-c1ccc2cccc(N3CCC(NC(=O)c4cccc(Br)c4)CC3)c2n1` [Compound 3, N-3-bromobenzoyl-1-{2-[5-(2-methoxyethoxy)-1H-benzo[d]imidazol-1-yl]quinolin-8-yl}-piperidin-4-amine], which IC50 (PDGFRβ (BxPC3-luc cells)) is on record?
Its IC50 is 1280 nM.

For `COCCOc1ccc2c(c1)ncn2-c1ccc2cccc(N3CCC(N)CC3)c2n1` [Compound 1, 1-{2-[5-(2-methoxyethoxy)-1H-benzo[d]imidazol-1-yl]quinolin-8-yl}piperidin-4-amine, reference compound], which IC50 (PDGFRβ (BxPC3-luc cells)) is on record?
Its IC50 is 183 ± 8 nM.
